Experiments:
[1] = Hydrophilicity / water solubility; assay type: physicochemical; conditions: qualitative
Protocol: These derivatives more or less have the properties of methylene blue, are hydrosoluble, active by the enteral and parenteral route (IV, SC, etc.) and they never give rise to acute or chronic toxicity nor undesirable effects, at doses comprised between 0.05 mg/Kg and 40 mg/Kg.

[2] = Half life of the compound; conditions: qualitative
[3] = tested on: pernicious attacks resistant to quinine (malaria); conditions: IV route; cited from earlier work
[4] = used externally and internally; cited from earlier work

Row | SMILES | hydrophilicity [1] | half life [2] | activity on pernicious attacks resistant to quinine [3] | antiseptic activity [4]
1 | CNc1ccc2nc3c(C)cc(N(C)C)cc3[s+]c2c1C [Example 1, 4-5 dimethyl-7-(dimethylamino)-3(methylimino)-3H phenothiazine] | decreased hydrophilicity |  |  | 
2 | CNc1ccc2nc3c(Cl)cc(N(C)C)cc3[s+]c2c1C [Example 2] | more hydrophilic than the reference daughter molecule | considerably increases the half life |  | 
3 | CNc1ccc2nc3c(O)cc(N(C)C)cc3[s+]c2c1O [Example 4] | very hydrophilic | short half life |  | 
4 | CN(C)c1ccc2nc3ccc(=[N+](C)C)cc-3sc2c1 [Methylene blue, methylene blue] |  |  | active | moderate
